Values quoted from earlier work in patent US8486874B2, “Water-soluble processing oil agent” (Idemitsu Kosan Co., Ltd., priority 2009, dated 2013).

Key:
[1] = Peroral rat
[2] = compared with dicyclohexylamine, Table 1 data
[3] = Percutaneous rabbit

C1CCC(NC2CCCCC2)CC1 [Dicyclohexylamine, reference compound]
LD50 [1]: LD50 373 mg/kg^1)

CN(C1CCCCC1)C1CCCCC1 [Methyldicyclohexylamine]
Toxicity relative to dicyclohexylamine [2]: considerably lower
LD50 [1]: LD50 446 mg/kg^1)
LDLo [3]: LDLo 2 g/kg^1)
